# Results published in patent publication US9669005B2, “Use of naringenin in preparing drugs for preventing and/or treatment abdominal aortic aneurysm” (priority 2013, dated 2017).
# Legend:
# [1] = test system: abdominal aortic aneurysms in C57BL/6J mice with CaPO4 daubed infrarenal arteries; assay: Abdominal aortic aneurysm model induced by CaPO4 daubed infrarenal aortas, naringenin or doxycycline gavage; format: in vivo; details: CaPO4 daubed C57BL/6 mice; daily gavage 7 days; naringenin 50 mg/kg, doxycycline 100 mg/kg; average ± SD; CaPO4 + water 1.40±0.19, NaCl 0.77±0.06
# Method: 12-week old of male C57BL/6 mice were anesthetized via intraperitoneal injection of 0.1% pentobarbital sodium (injection according to body weight, […]). Infrarenal abdominal aortas were separated, and the separated infrarenal abdominal aortas were packaged by gauze (1 cm in width×3 cm in length) soaked in 0.5 M CaCl2 solution. After 10 minutes, the gauze was removed, gauze soaked in PBS was instead used to package the blood vessel for 5 min. CaCl2+and PO4^−3 in PBS can form CaPO4 crystal, that is, corresponding to daubing CaPO4 to the blood vessel. After packaging the blood vessel with gauze soaked in NaCl for 10 minutes, gauze soaked in PBS is instead used for 5 min, serving as NaCl daubed control group.
# (§1) Gavage was started at the first day after surgery, and water, naringenin (50 mg/kg) (Sigma-Aldrich, St. Louis, Mo.) or doxycycline (100 mg/kg) (Sigma-Aldrich, St. Louis, Mo.) gavage were given on mice daily. Materials were removed from the mice 7 days after gavage. Mice were weighed, and blood was drawn from inner canthus by capillary, after centrifuged for 10 minutes at 6000 rotations, the supernatant was removed and blood fat was measured (kit is purchased from BIOSINO company). Then perfusion and washing were performed on mice using PBS. Blood vessels were separated, and four blood vessels were randomly chosen for each group for photographing. The results were shown in FIG. 1, wherein, NaCl was the group of daubing NaCl (n=11), CaPO4 was the group of daubing CaPO4 plus water feed (n=12), CaPO4+NGN was the group of daubing CaPO4 μlus naringenin gavage (n=11), and CaPO4+Dox was the group of daubing CaPO4 μlus doxycycline gavage (n=11).
# The blood vessels were sliced, and the change of the diameters in infrarenal abdominal aortas of mice were identified by H.E. staining. […] The data in FIG. 2A were an average value±standard deviation.
# The fracture degree of elastic lamina is also an index showing the severity of abdominal aortic aneurysms. The degradation of elastic lamina is divided into four grades. The first grade means that the degradation of elastic lamina is less than 25%, with the second grade of 25%-50%, the third grade of 50%-75%, and the fourth grade means the fracture is more than 75%. We used Gomori staining to identify the fracture situation of elastic lamina of infrarenal abdominal aortas of mice. […] The data in FIG. 2B were an average value±standard deviation.
# [2] = Body weight and blood fat of CaPO4 treated C57BL/6J mice; format: in vivo; details: CaPO4 treated C57BL/6J mice; gavage 7 days; naringenin 50 mg/kg, doxycycline 100 mg/kg
# Method: as §1
smiles,measurement,setting,value
"C[C@H]1c2cccc(O)c2C(=O)C2=C(O)[C@]3(O)C(=O)C(C(N)=O)=C(O)[C@@H](N(C)C)[C@@H]3[C@@H](O)[C@@H]21 [doxycycline, reference compound]",diameters of infrarenal abdominal aortas (H.E. staining),[1],0.99±0.18 mm
same,Body weight,[2],21.0 ± 1.89 g
same,Cholesterol,[2],3.49 ± 0.64 mmol
same,Triglyceride,[2],1.07 ± 0.32 mmol
